Patent US10202373B2, “Heteroaryls and uses thereof” (MILLENNIUM PHARMACEUTICALS, INC., priority 2014, dated 2019)

Target: human VPS34 (Homo sapiens (Human), UniProt Q8NEB9)
Test: Human VPS34 enzyme assay (Adapta TR-FRET)
Assay type: biochemical
Settings: for inhibition at 1.11 µM: 1 h, inhibition of VPS34 at a 1.11 μM concentration, read-out: Percent Inhibition; for IC50: human VPS34 enzyme assay, IC50 ranges
Method: VPS34 (accession number GB:BC033004) was cloned into pDEST20-Thombin as N-terminal GST tagged fusion proteins using the Gateway system (Invitrogen, catalog#11804-013). The sequences were verified before recombinant protein expression using the Baculovirus Expression System with Gateway® Technology. For expression VPS34 was infected at 1 MOI in SF9 cells and harvested 72 hours post infection. For purification, VPS34 is purified by Glutathione Sepharose 4 Fast Flow (GE Healthcare #17-5132-03) followed by HiTrap Q (GE Healthcare #17-1153-01). Human VPS34 Enzyme Assay Method 100 nL compounds in DMSO are added to wells of a 384 well microtitre plate (Greiner 780076). At room temperature: 5 ul VPS34 reaction buffer (Invitrogen Assay Buffer Q (diluted 1 in 5 with nanopure water) plus 2 mM DTT and 2 mM MnCl2) containing ATP (20 uM, Promega) and 200 uM PI-PS substrate (Invitrogen PV5122) is added followed immediately by 5 ul VPS34 reaction buffer (as above) containing VPS34 (5 nM, Millennium Protein Sciences Group) and the mixture is incubated with shaking at room temperature for 1 hour. Then 5 ul […]-detect mix (as per Invitrogen Adapta Assay kit (PV5009) instructions (contains kinase quench buffer, TR-FRET buffer, Adapta Eu anti-ADP antibody and Alexa Fluor 647 ADP tracer)) is added to quench the reaction. The plates are then incubated for 30 minutes at room temperature with shaking and then read on a BMG PheraStar Plus reader. For the assay methods described above, test compound percent inhibition, at various concentrations, is calculated relative to control (DMSO and EDTA) treated samples. Compound concentration versus percent inhibition curves are fitted to generate IC50 values. One skilled in the art will appreciate that the values generated either as percentage inhibition at a single concentration or IC50 values are subject to experimental variation. […] Additionally, compounds of the invention that inhibit VPS34 are described with the following IC50 ranges: […]

Sequence of human VPS34 (Q8NEB9 whole entry): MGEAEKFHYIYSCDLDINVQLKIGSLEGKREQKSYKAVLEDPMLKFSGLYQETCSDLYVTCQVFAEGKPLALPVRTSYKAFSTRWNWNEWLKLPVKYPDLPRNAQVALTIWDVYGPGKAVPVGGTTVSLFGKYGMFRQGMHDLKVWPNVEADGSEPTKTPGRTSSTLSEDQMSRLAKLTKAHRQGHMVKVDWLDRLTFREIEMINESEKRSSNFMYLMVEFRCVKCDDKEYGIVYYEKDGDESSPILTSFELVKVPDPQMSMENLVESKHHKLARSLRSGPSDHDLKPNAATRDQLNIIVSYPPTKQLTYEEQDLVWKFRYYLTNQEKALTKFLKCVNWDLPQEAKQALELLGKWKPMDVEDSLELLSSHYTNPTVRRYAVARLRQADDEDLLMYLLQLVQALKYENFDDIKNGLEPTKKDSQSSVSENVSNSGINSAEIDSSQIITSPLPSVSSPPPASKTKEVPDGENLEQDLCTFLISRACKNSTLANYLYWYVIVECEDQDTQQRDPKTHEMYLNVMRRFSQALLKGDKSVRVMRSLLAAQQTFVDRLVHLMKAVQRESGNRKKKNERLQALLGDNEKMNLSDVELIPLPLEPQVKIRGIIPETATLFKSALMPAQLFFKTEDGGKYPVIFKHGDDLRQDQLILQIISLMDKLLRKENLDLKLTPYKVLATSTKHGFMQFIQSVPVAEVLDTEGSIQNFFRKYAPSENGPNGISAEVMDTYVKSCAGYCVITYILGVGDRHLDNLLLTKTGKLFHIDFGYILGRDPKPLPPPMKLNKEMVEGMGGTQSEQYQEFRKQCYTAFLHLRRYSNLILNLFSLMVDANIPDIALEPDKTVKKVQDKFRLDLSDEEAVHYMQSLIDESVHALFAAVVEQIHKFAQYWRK

O=C(Cc1nnn[nH]1)Nc1cc(-c2cncc3c2ccn3S(=O)(=O)C2CC2)ccn1 [Compound I-27, N-{4-[1-(cyclopropylsulfonyl)-1H-pyrrolo[2,3-c]pyridin-4-yl]pyridin-2-yl}-2-(1H-tetrazol-5-yl)acetamide] was tested, and the inhibition at 1.11 µM was over 99% and the IC50 was 10 to 50 nM.

With COC(=O)Nc1cc(-c2cncc3c2ccn3S(=O)(=O)c2ccccc2)ccn1 [Compound I-28, methyl {4-[1-(phenylsulfonyl)-1H-pyrrolo[2,3-c]pyridin-4-yl]pyridin-2-yl}carbamate] the inhibition at 1.11 µM was over 99% and the IC50 was 10 to 50 nM.

COC(=O)Nc1cc(-c2cncc3c2ccn3S(C)(=O)=O)ccn1 [Compound I-29, methyl {4-[1-(methylsulfonyl)-1H-pyrrolo[2,3-c]pyridin-4-yl]pyridin-2-yl}carbamate] showed an inhibition at 1.11 µM of over 99% and an IC50 of 10 to 50 nM.

In the case of COC(=O)Nc1cc(-c2cncc3c2ccn3S(=O)(=O)C2CC2)ccn1 [Compound I-30, methyl {4-[1-(cyclopropylsulfonyl)-1H-pyrrolo[2,3-c]pyridin-4-yl]pyridin-2-yl}carbamate], the inhibition at 1.11 µM is reported as 99% and the IC50 is reported as 10 to 50 nM.

CC(=O)Nc1cc(-c2cncc3c2cc(C)n3S(=O)(=O)c2ccccc2)ccn1 [Compound I-31, N-{4-[2-methyl-1-(phenylsulfonyl)-1H-pyrrolo[2,3-c]pyridin-4-yl]pyridin-2-yl}acetamide] gave an inhibition at 1.11 µM of over 99% and an IC50 of 10 to 50 nM.

For CS(=O)(=O)n1ccc2c(-c3ccnc(N)c3)cncc21 [Compound I-32, 4-[1-(methylsulfonyl)-1H-pyrrolo[2,3-c]pyridin-4-yl]pyridin-2-amine], the inhibition at 1.11 µM was 30% and the IC50 was over 100 nM.

With CC(=O)Nc1cc(-c2cncc3c2ccn3S(=O)(=O)N(C)C)ccn1 [Compound I-33, N-{4-[1-(dimethylsulfamoyl)-1H-pyrrolo[2,3-c]pyridin-4-yl]pyridin-2-yl}acetamide] the inhibition at 1.11 µM was over 99% and the IC50 was under 10 nM.

CC(=O)Nc1cc(-c2cnc(C)c3c2ccn3S(=O)(=O)c2ccccc2C)ccn1 [Compound I-34, N-(4-{7-methyl-1-[(2-methylphenyl)sulfonyl]-1H-pyrrolo[2,3-c]pyridin-4-yl}pyridin-2-yl)acetamide] gave an inhibition at 1.11 µM of over 99% and an IC50 of 10 to 50 nM.

With CC(=O)Nc1cc(-c2cnc(C)c3c2ccn3CC2CC2)ccn1 [Compound I-36, N-{4-[1-(cyclopropylmethyl)-7-methyl-1H-pyrrolo[2,3-c]pyridin-4-yl]pyridin-2-yl}acetamide] the inhibition at 1.11 µM was 79% and the IC50 was over 100 nM.

With CC(=O)Nc1cc(-c2cncc3c2ccn3S(=O)(=O)C2CC2)ccn1 [Compound I-37, N-{4-[1-(cyclopropylsulfonyl)-1H-pyrrolo[2,3-c]pyridin-4-yl]pyridin-2-yl}acetamide] the inhibition at 1.11 µM was over 99% and the IC50 was under 10 nM.

Molecule COC(=O)Nc1cc(-c2cnc(C)c3c2ccn3S(C)(=O)=O)ccn1 [Compound I-38, methyl {4-[7-methyl-1-(methylsulfonyl)-1H-pyrrolo[2,3-c]pyridin-4-yl]pyridin-2-yl}carbamate] has an inhibition at 1.11 µM of 99% and an IC50 of 10 to 50 nM.

With CC(=O)Nc1cc(-c2cncc3c2ccn3S(=O)(=O)c2ccccc2)ccn1 [Compound I-39, N-{4-[1-(phenylsulfonyl)-1H-pyrrolo[2,3-c]pyridin-4-yl]pyridin-2-yl}acetamide] the inhibition at 1.11 µM was over 99% and the IC50 was under 10 nM.

Molecule CC(=O)Nc1cc(-c2cnc(CN)c3c2ccn3S(=O)(=O)C2CC2)ccn1 [Compound I-41, N-{4-[7-(aminomethyl)-1-(cyclopropylsulfonyl)-1H-pyrrolo[2,3-c]pyridin-4-yl]pyridin-2-yl}acetamide] has an inhibition at 1.11 µM of over 99% and an IC50 of 10 to 50 nM.

In the case of CCOC(=O)Nc1cc(-c2cnc(C)c3c2ccn3S(=O)(=O)C2CC2)ccn1 [Compound I-42, ethyl {4-[1-(cyclopropylsulfonyl)-7-methyl-1H-pyrrolo[2,3-c]pyridin-4-yl]pyridin-2-yl}carbamate], the inhibition at 1.11 µM is reported as over 99% and the IC50 is reported as under 10 nM.

Work on COC(=O)Nc1cc(-c2cnc(C)c3c2ccn3S(=O)(=O)C2CC2)ccn1 [Compound I-43, methyl {4-[1-(cyclopropylsulfonyl)-7-methyl-1H-pyrrolo[2,3-c]pyridin-4-yl]pyridin-2-yl}carbamate] yielded an inhibition at 1.11 µM of over 99% and an IC50 of under 10 nM.

With CC(=O)Nc1cc(-c2cnc(C)c3c2ccn3S(=O)(=O)C2CC2)ccn1 [Compound I-44, N-{4-[1-(cyclopropylsulfonyl)-7-methyl-1H-pyrrolo[2,3-c]pyridin-4-yl]pyridin-2-yl}acetamide] the inhibition at 1.11 µM was over 99% and the IC50 was 10 to 50 nM.

Work on CC(=O)Nc1cc(-c2cnc(C)c3c2ccn3S(C)(=O)=O)ccn1 [Compound I-45, N-{4-[7-methyl-1-(methylsulfonyl)-1H-pyrrolo[2,3-c]pyridin-4-yl]pyridin-2-yl}acetamide] yielded an inhibition at 1.11 µM of over 99% and an IC50 of 10 to 50 nM.

CC(=O)Nc1cc(-c2cnc(C)c3c2c(F)cn3S(C)(=O)=O)ccn1 [Compound I-46, N-{4-[3-fluoro-7-methyl-1-(methylsulfonyl)-1H-pyrrolo[2,3-c]pyridin-4-yl]pyridin-2-yl}acetamide] was tested, and the inhibition at 1.11 µM was over 99% and the IC50 was 10 to 50 nM.

CCOC(=O)Nc1cc(-c2cnc(C)c3c2ccn3S(=O)(=O)c2ccccc2)ccn1 [Compound I-47, ethyl {4-[7-methyl-1-(phenylsulfonyl)-1H-pyrrolo[2,3-c]pyridin-4-yl]pyridin-2-yl}carbamate] gave an inhibition at 1.11 µM of over 99% and an IC50 of 10 to 50 nM.

Work on Cc1ncc(-c2ccnc(NC(=O)CO)c2)c2ccn(S(=O)(=O)C3CC3)c12 [Compound I-48, N-{4-[1-(cyclopropylsulfonyl)-7-methyl-1H-pyrrolo[2,3-c]pyridin-4-yl]pyridin-2-yl}-2-hydroxyacetamide] yielded an inhibition at 1.11 µM of over 99% and an IC50 of 10 to 50 nM.

With O=S(=O)(C1CC1)n1ccc2c(-c3ccnc(Nc4ccncn4)c3)cncc21 [Compound I-49, N-{4-[1-(cyclopropylsulfonyl)-1H-pyrrolo[2,3-c]pyridin-4-yl]pyridin-2-yl}pyrimidin-4-amine] the inhibition at 1.11 µM was 88% and the IC50 was 10 to 50 nM.

Molecule c1cc(Nc2cc(-c3cncc4[nH]ccc34)ccn2)ncn1 [Compound I-50, N-[4-(1H-pyrrolo[2,3-c]pyridin-4-yl)pyridin-2-yl]pyrimidin-4-amine] has an inhibition at 1.11 µM of 82% and an IC50 of 10 to 50 nM.

In the case of Cc1nccc(Nc2cc(-c3cnc(C)c4[nH]ccc34)ccn2)n1 [Compound I-51, 2-methyl-N-[4-(7-methyl-1H-pyrrolo[2,3-c]pyridin-4-yl)pyridin-2-yl]pyrimidin-4-amine], the inhibition at 1.11 µM is reported as 91% and the IC50 is reported as 10 to 50 nM.
